# Laboratory results as given in ChEMBL document CHEMBL1201862, “PubChem BioAssay data set” (2004).
# Active and inactive are the calls of the source.
# How the values were obtained:
# [1] = target: T1, G-protein coupled receptor 55 (Homo sapiens, UniProt Q9Y2T6); experiment: selective activators of receptor GPR55 – imaging, U2OS cells, beta-arrestin-GFP redistribution, primary screen (AID 1961); assay type: functional
# Cannabinoid receptor 2 [2] = target: T2, Cannabinoid receptor 2 (Homo sapiens, UniProt P34972); experiment: SAR analysis of antagonists of the Cannabinoid Receptor 2 using an Image-Based Assay - Set 2. [Related pubchem assays (depositor defined):AID1961, AID1965]; assay type: functional
# T2 sequence (P34972 whole entry): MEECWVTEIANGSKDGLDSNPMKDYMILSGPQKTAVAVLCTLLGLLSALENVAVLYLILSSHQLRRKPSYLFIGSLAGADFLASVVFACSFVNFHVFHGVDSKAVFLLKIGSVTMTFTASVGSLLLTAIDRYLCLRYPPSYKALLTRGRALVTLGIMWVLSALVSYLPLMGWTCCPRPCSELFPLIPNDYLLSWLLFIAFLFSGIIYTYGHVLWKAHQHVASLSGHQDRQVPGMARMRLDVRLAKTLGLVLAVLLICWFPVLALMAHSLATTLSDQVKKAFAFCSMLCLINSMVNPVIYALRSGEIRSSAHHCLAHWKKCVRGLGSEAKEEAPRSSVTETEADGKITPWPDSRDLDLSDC
# Cannabinoid receptor 2 [3] = target: T2, Cannabinoid receptor 2; experiment: SAR analysis of agonists of the Cannabinoid Receptor 2 using an Image-Based Assay - Set 2. [Related pubchem assays (depositor defined):AID1961, AID1965]; assay type: functional
# [4] = target: T1, G-protein coupled receptor 55; experiment: SAR analysis of selective Agonists of GPR55 using an Image-Based Assay. [Related pubchem assays (depositor defined):AID1961, AID1965]; assay type: functional
# Cannabinoid receptor 1 = Cannabinoid receptor 1 (Homo sapiens, UniProt P21554); experiment: SAR analysis of antagonists of the Cannabinoid Receptor 1 using an Image-Based Assay. [Related pubchem assays (depositor defined):AID1961, AID1965]; assay type: functional
# Sequence of Cannabinoid receptor 1 (P21554 whole entry): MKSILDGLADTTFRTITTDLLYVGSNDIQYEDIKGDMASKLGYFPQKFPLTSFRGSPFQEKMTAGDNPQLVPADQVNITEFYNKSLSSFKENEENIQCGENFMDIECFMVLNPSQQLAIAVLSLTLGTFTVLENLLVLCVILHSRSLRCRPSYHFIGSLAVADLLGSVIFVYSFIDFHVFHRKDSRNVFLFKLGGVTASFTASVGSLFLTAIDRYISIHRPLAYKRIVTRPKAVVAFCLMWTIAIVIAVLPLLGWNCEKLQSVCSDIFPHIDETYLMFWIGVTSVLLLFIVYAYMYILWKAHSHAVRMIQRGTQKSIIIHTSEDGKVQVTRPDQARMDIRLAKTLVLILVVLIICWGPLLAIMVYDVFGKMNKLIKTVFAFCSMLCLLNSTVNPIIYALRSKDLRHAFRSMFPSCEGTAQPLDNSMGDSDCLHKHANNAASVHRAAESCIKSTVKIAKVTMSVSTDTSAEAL
# [5] = target: Intestinal-type alkaline phosphatase (Homo sapiens, UniProt P09923); experiment: activation of human intestinal alkaline phosphatase – biochemical, dose response (AID 488873); assay type: functional
# [6] = target: Intestinal-type alkaline phosphatase (Mus musculus, UniProt P24822); experiment: mouse intestinal alkaline phosphatase activators, dose response, biochemical, luminescence, uHTS hits (AID 488783); assay type: functional
# Sequence of Intestinal-type alkaline phosphatase (Mus musculus, UniProt P24822) (P24822 whole entry): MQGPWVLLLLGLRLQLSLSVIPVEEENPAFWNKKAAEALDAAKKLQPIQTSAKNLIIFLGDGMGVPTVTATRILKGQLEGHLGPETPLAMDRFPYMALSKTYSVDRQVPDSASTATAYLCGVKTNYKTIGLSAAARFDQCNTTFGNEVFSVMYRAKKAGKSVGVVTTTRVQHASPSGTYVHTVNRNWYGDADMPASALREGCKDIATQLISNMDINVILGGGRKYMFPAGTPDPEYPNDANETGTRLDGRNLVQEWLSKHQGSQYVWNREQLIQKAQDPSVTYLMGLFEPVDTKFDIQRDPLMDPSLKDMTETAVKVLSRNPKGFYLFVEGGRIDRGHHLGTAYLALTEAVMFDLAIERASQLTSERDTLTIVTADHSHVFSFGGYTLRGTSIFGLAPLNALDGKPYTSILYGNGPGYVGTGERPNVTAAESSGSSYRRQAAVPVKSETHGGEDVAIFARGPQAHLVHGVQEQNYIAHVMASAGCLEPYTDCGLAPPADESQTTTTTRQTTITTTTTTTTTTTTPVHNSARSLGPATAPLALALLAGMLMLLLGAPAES
# [7] = target: T3, Alkaline phosphatase, tissue-nonspecific isozyme (Homo sapiens, UniProt P05186); experiment: activation of tissue-nonspecific alkaline phosphatase – biochemical, TNAP isozyme, mouse IAP uHTS hits, selectivity assay for mouse IAP activator project, dose response (AID 488880); assay type: functional
# T3 sequence (P05186 whole entry): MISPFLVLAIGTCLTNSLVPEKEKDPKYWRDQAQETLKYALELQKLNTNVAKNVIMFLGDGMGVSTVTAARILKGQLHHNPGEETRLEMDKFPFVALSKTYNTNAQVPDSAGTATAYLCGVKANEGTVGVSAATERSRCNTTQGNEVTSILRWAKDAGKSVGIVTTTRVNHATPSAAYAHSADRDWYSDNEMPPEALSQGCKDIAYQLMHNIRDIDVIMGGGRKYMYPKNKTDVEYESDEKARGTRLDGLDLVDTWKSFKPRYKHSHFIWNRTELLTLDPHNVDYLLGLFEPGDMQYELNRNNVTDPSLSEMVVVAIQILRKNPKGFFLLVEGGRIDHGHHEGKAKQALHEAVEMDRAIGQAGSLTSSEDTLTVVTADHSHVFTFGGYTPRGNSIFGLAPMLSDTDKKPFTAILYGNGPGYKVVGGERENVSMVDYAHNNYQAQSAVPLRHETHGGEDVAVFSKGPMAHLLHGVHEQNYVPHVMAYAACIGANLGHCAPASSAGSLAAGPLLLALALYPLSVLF
# [8] = target: 26S proteasome non-ATPase regulatory subunit 14 (Homo sapiens, UniProt O00487); experiment: inhibition of proteasome subunit RPN11 – biochemical, fluorescence polarization, uHTS hits, confirmation (AID 602368); assay type: functional
# Sequence of 26S proteasome non-ATPase regulatory subunit 14 (O00487 whole entry): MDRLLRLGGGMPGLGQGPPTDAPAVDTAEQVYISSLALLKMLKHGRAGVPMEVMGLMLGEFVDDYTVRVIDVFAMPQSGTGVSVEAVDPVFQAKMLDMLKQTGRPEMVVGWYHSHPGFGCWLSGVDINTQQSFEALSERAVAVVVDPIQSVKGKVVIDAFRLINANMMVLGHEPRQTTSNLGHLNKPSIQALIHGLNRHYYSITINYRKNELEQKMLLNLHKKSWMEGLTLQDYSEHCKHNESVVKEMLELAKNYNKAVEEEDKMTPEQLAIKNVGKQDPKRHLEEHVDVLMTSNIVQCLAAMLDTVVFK
# [9] = target: 72 kDa type IV collagenase (Homo sapiens, UniProt P08253); experiment: Dose Response validation of uHTS RPN11 inhibitor hits using a MMP-2 Fluorescence assay.; assay type: functional
# Prothrombin = Prothrombin (Bos taurus, UniProt P00735); experiment: thrombin protease inhibitors – biochemical, fluorescence polarization, uHTS hits, dose response (AID 602369); assay type: functional
# [10] = target: T4, Short transient receptor potential channel 4 (Mus musculus, UniProt Q9QUQ5); experiment: calcium entry via TRPC4 opening agents – cell-based, HEK293 TRPC4/mu-opioid, Fluo-4 calcium, dose response (AID 434937); assay type: functional
# T4 sequence (Q9QUQ5 whole entry): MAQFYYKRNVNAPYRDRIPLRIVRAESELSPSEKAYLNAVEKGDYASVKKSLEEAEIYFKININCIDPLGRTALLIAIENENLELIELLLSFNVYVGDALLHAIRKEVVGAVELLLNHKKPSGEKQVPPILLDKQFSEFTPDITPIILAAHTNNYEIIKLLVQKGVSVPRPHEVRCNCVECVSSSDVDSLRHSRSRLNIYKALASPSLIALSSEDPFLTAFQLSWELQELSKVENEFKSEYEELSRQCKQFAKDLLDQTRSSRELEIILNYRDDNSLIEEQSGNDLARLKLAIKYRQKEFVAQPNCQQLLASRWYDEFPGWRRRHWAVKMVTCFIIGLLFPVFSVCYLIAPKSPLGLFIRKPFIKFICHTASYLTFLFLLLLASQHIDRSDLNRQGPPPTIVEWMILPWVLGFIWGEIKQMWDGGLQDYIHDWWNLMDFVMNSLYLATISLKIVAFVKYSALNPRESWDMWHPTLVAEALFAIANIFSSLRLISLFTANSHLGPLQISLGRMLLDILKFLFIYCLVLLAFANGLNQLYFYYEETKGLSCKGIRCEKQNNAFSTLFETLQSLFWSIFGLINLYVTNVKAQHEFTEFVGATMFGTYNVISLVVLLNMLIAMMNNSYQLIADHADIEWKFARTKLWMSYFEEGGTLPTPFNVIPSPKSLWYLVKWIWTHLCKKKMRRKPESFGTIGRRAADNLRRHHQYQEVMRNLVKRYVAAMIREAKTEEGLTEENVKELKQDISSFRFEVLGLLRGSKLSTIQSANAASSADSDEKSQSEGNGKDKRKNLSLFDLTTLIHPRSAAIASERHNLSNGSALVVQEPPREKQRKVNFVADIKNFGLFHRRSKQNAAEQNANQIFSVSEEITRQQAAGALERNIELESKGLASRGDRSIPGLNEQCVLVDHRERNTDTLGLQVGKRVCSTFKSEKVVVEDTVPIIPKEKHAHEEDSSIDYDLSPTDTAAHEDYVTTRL
# [11] = target: T5, Corticotropin-releasing factor receptor 2/Corticotropin-releasing factor-binding protein (Homo sapiens, UniProt P24387+Q13324); experiment: activators of CRF receptor 2 with binding protein – uHTS hits, confirmation (AID 602473); assay type: functional; conditions: read-out: EC50_Mean
# T5 sequence (Q13324 whole entry): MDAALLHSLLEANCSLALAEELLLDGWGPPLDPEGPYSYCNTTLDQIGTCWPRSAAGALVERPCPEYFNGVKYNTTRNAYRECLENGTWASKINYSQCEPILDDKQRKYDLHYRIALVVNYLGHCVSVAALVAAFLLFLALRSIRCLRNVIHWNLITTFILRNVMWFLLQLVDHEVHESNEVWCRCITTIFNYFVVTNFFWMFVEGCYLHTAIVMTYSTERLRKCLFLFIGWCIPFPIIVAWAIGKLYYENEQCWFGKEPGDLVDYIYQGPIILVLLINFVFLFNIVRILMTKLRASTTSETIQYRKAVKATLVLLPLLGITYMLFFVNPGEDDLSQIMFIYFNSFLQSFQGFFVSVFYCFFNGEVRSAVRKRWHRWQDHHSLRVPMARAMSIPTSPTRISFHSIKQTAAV
# T5 sequence (P24387 whole entry): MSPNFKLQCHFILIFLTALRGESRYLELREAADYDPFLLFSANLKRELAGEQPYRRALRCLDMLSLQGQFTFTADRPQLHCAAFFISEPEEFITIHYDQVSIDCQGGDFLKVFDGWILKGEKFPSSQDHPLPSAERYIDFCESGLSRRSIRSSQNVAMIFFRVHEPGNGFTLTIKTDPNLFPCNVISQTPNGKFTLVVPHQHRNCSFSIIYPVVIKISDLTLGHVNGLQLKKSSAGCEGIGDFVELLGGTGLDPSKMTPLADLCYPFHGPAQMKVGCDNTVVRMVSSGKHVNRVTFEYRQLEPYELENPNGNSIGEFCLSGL
# [12] = tested on: Streptococcus sp. 'group A'; experiment: Streptococcus pyogenes SK(-)GAS viability under kanamycin – luminescence, BacTiterGlo, confirmation, counter-screen for streptokinase expression inhibitor project, dose response (AID 1900); assay type: functional, organism-based
# cells [13] = assay type: functional, cell-based
# [14] = Luminescence-based counterscreen assay for KLF5 inhibitors: dose response cell-based high throughput screening assay to identify cytotoxic compounds using the IEC-6 intestinal epithelial cell line. [Related pubchem assays: 1700 (Primary screen.), 1834 (Confirmation screen.), 1858 (Summary AID.), 1905 (Counterscreen.)]; assay type: functional
# cells [15] = assay type: functional, cell-based; remark: listed apart in the source
# Streptococcus = experiment: GAS UMAA2166 growth inhibition – luminescence, BacTiterGlo, counter-screen for streptokinase expression inhibitor project, dose response (AID 1915); assay type: functional, organism-based;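 note: potency for reduction of bacterial viability or growth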
# Exodeoxyribonuclease V = Exodeoxyribonuclease V (Escherichia coli (strain K12), UniProt P04993+P07648+P08394); experiment: RecBCD inhibition via phage-restricted bacterial growth – absorbance, V66 E. coli, mutant T4 phage, counter-screen for AddAB inhibitor project, dose response (AID 492957); assay type: functional, cell-based, Escherichia coli str. K-12 substr. MG1655
# Sequence of Exodeoxyribonuclease V (P04993 whole entry): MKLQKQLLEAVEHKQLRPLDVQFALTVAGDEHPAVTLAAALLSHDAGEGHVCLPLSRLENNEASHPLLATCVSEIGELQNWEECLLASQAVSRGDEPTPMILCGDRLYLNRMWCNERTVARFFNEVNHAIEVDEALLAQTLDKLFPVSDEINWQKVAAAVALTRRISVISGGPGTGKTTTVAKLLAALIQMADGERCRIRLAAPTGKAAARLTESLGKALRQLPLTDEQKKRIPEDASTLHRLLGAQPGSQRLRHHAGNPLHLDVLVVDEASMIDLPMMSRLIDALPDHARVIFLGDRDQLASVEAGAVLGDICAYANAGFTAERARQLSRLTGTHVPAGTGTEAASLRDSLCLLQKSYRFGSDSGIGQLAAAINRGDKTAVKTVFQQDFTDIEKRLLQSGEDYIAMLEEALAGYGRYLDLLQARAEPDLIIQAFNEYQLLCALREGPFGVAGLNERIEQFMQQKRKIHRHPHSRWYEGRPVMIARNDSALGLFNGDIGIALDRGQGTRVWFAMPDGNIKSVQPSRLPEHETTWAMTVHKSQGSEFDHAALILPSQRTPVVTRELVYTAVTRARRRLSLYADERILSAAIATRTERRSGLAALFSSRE
# Sequence of Exodeoxyribonuclease V (P07648 whole entry): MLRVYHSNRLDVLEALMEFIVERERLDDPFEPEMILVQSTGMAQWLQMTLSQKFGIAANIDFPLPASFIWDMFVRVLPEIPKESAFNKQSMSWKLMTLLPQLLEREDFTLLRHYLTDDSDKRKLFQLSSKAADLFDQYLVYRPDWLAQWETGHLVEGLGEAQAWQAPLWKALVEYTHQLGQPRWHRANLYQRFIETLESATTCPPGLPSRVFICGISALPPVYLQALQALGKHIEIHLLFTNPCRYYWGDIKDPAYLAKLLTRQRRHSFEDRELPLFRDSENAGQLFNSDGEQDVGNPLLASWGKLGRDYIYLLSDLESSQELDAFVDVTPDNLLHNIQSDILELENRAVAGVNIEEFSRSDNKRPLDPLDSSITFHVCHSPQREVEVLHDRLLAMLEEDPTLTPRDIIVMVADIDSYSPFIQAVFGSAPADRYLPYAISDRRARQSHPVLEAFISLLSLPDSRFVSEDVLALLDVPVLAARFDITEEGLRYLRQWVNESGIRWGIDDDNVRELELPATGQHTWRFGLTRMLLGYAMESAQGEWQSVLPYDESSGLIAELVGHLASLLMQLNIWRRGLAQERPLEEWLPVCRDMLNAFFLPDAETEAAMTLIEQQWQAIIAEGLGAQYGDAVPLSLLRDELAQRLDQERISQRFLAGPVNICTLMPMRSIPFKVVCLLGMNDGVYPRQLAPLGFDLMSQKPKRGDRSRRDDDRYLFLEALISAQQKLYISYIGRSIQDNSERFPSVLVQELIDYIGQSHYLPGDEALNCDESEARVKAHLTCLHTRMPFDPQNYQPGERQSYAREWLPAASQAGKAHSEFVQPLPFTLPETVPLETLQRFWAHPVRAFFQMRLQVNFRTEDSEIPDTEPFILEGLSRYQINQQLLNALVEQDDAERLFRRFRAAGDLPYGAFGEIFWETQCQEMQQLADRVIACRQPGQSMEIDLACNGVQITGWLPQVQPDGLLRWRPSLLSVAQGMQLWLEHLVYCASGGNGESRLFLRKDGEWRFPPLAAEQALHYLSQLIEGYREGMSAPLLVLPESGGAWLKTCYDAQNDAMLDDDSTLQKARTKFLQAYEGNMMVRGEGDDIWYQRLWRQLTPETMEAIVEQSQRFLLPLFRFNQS
# Sequence of Exodeoxyribonuclease V (P08394 whole entry): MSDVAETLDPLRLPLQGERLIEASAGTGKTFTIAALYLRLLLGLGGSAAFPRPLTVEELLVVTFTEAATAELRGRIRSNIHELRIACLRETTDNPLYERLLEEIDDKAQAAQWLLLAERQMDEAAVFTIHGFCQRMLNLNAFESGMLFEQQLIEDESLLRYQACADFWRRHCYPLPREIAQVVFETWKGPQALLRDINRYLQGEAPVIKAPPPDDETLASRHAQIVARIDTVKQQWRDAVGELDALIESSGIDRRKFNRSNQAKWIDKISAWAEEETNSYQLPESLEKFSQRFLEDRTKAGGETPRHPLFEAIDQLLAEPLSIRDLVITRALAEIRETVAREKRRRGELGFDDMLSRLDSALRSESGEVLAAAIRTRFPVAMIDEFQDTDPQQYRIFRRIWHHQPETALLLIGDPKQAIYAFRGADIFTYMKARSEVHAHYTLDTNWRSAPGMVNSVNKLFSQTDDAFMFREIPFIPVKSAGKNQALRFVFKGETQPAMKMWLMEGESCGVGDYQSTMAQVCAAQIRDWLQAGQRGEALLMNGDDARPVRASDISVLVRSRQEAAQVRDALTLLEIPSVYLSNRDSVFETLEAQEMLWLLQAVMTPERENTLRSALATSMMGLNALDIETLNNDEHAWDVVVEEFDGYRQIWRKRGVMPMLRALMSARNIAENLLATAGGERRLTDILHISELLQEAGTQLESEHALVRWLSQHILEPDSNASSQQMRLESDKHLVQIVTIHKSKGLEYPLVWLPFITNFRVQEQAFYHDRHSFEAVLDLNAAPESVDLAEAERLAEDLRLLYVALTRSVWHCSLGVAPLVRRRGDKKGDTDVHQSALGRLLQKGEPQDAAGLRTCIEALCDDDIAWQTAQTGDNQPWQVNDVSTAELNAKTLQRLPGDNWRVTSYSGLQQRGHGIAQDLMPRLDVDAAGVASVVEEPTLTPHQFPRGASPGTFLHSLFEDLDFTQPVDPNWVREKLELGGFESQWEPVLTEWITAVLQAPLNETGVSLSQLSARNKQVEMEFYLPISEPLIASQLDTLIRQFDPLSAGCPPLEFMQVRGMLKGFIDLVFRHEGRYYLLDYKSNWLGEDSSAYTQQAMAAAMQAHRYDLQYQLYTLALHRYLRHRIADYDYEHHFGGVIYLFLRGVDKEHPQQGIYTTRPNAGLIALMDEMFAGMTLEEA
# [16] = THP-1 cell cytotoxicity, dose response, cytotoxicity control for non-replicating M. tuberculosis project (AID 489025); assay type: functional
# [17] = HepG2 cell cytotoxicity, dose response, cytotoxicity control for non-replicating M. tuberculosis project (AID 489018); assay type: functional; conditions: Mycobacterium tuberculosis
# [18] = Vero E6 cell cytotoxicity, dose response, cytotoxicity control for non-replicating M. tuberculosis project, secondary assay (AID 492998); assay type: functional, VeroE6; conditions: Vero C1008
# [19] = HEK-293T viability loss after treatment – luminescence, T-cell screen hits, cytotoxicity control for TCR NF-kB inhibitor project, dose response (AID 489026); assay type: functional, cell-based;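 note: cells exposed to compound about 14 hours before the viability readout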
# [20] = Counterscreen for AddAB inhibitors: absorbance-based bacterial cell-based high throughput dose response assay for inhibitors of bacterial viability. [Related pubchem assays (depositor defined):AID435030, AID449728, AID449731, AID488942, AID488955, AID488956]; assay type: functional
# HEK293 = experiment: EBV LMP1 TES2 canonical NF-kB signalling blockers – cell-based, HEK293, luciferase, cherry-pick, dose response (AID 588343); assay type: functional; conditions: Homo sapiens
# INS1 = experiment: INS-1E survival protection against cytokine death – cell-based, luminescence, retest, dose response (AID 449756); assay type: functional; conditions: Rattus norvegicus;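 note: cell death triggered by IL-1 beta plus TNF-alpha plus IFN-gamma mixture; protective hits raise ATP signal compared with cytokine alone wells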
# T1 sequence (Q9Y2T6 whole entry): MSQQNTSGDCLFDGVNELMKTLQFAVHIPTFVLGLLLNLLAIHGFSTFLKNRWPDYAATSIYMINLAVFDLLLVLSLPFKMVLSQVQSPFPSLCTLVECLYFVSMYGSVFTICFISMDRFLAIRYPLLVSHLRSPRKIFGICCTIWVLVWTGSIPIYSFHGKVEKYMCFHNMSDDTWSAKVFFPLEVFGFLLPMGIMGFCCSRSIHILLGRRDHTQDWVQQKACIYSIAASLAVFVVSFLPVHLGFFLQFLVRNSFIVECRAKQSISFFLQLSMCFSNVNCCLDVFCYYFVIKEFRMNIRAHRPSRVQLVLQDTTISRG
smiles,measurement,setting,value
CC(Sc1nc2cc(Cl)ccc2s1)C(=O)Nc1cccc(S(=O)(=O)N2CCOCC2)c1 (stereo unspecified),EC50,[1],0.961 µM (active)
same,IC50,Cannabinoid receptor 2 [2],> 32 µM (inactive)
same,EC50,Cannabinoid receptor 2 [3],> 32 µM (inactive)
same,EC50,[4],0.761 µM (active)
same,IC50,Cannabinoid receptor 1,> 32 µM (inactive)
CN(CCO)c1ccc(C=NNc2ccc([N+](=O)[O-])cc2S(=O)(=O)Nc2ccccc2C(=O)O)cc1,EC50,[5],26.6 µM (active)
same,EC50,[6],17.5 µM (active)
same,EC50,[7],19.7 µM (active)
same,IC50,[8],37 µM (active)
same,IC50,[9],> 100 µM (inactive)
same,IC50,Prothrombin,36.4 µM (active)
CCC1(c2ccc(F)cc2)NC(=O)N(CC(=O)c2cc(C)n(C3CC3)c2C)C1=O (stereo unspecified),EC50,[10],5.96 µM (active)
same,EC50,[11],4.88 µM (active)
O=C(N/N=C/c1c(O)ccc2ccccc12)c1ccc(Br)o1,EC50,[12],0.982 µM (active)
same,EC50,cells [13],> 350 µM (not active)
same,IC50,[14],9.35 µM (active)
same,EC50,cells [15],37.3 µM (active)
same,EC50,Streptococcus,2.83 µM (active)
same,IC50,Exodeoxyribonuclease V,> 119 µM (inactive)
same,CC50,[16],0.493 µM (active)
same,CC50,[17],5.73 µM (active)
same,CC50,[18],2.71 µM (active)
same,IC50,[19],> 80 µM (inactive)
same,IC50,[20],> 119 µM (inactive)
same,AC50,HEK293,6.22 µM (active)
same,AC50,INS1,0.779 µM (active)
